Measurements published in patent US20260055142A1, “PHARMACEUTICAL USE OF POLYPEPTIDE IN PREPARATION OF DRUGS FOR TREATING AND/OR PREVENTING DIABETES AND OBESITY AND RELATED DISEASES THEREOF” (GUANGDONG RAYNOVENT BIOTECH CO., LTD., priority 2022, published 2026).

Tests used:
GIPR = biological target: T1, GIPR (Homo sapiens, UniProt P48546); experiment: In vitro GIPR agonistic activity test (cAMP kit); assay type: cell-based; details: CHO host cell; without 1% HSA
T1 construct: host or cells: CHO
T1 sequence (P48546 22-466): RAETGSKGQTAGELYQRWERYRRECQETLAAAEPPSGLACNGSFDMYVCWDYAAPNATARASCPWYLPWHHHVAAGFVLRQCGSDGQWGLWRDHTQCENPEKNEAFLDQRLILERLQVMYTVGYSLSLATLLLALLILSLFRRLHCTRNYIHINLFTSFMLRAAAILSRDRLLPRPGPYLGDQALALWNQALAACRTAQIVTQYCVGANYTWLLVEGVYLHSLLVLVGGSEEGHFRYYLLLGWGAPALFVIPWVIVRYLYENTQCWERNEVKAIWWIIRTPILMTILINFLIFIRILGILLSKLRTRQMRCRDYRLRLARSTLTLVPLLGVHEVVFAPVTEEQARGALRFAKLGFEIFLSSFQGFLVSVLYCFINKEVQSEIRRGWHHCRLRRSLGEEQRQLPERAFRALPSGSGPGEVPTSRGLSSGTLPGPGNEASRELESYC
Method: The cell lines were constructed by Wuxi […] (Shanghai) Co., Ltd. See details in Table 1 below. […] The test compounds were diluted at a 4-fold dilution factor in 10 points, starting from an initial concentration of 30 μM.

GLP-1R = biological target: T2, GLP-1R (Homo sapiens, UniProt P43220); experiment: In vitro GLP-1R agonistic activity test (cAMP kit); assay type: cell-based; details: HEK293 host cell; without 1% HSA
T2 construct: host or cells: HEK293
T2 sequence (P43220 24-463, species assumed): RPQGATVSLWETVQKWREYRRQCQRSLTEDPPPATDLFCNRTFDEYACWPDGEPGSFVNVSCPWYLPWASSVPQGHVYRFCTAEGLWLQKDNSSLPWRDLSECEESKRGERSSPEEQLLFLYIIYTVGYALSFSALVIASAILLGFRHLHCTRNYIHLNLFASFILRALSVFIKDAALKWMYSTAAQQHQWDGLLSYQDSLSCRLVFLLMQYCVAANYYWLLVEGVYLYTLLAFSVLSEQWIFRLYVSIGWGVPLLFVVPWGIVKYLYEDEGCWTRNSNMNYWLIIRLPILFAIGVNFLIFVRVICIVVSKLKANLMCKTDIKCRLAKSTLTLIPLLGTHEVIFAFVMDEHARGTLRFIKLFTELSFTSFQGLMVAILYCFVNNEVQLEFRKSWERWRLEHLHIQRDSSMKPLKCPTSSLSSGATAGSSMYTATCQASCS
Method: The cell lines were constructed by Wuxi […] (Shanghai) Co., Ltd. See details in Table 1 below. [table] The test compounds were diluted at a 4-fold dilution factor in 10 points, starting from an initial concentration of 30 μM. […]

[1] = test system: Db/db (Lepr leptin receptor deficient) mice; experiment: In vivo efficacy test in mouse model of diabetes; details: for Change rate of glycosylated hemoglobin: “−” indicates decrease
Source text: To study the efficacy of the series of polypeptides of the present application in animal model of diabetes, and to compare them with the marketed counterpart Tirzepatide as reported in the literature (MOLECULAR METABOLISM, 18 (2018), P3-14). The glucose-lowering effect of Tirzepatide is much better than that of Semaglutide, and thus Semaglutide was not included in this experiment for comparison. Db/db (Lepr leptin receptor deficient) mice have typical clinical symptoms of diabetes such as extreme obesity, hyperphagia, thirst, and polyuria, and they are ideal animal model of type II diabetes. […] The test animals were divided into groups. An appropriate amount of the test samples were added into 20 mM sodium citrate buffer following the experimental protocol, and the mixture was vortexed at room temperature to obtain clear solutions of varying concentrations. The obtained solutions were frozen for further use. During the experiment, animals in the normal control group, the model group and the dosing group were administered by means of subcutaneous injection on the outer thighs. The dosing regimen was once a day (Qd), for a total period of 4 weeks. Details were as follows: [table] […] The fasting blood glucose level and the change rate of glycosylated hemoglobin level in the test mice were dynamically monitored during the experiment.

mouse model of obesity = experiment: In vivo efficacy test in mouse model of obesity; details: high-fat diet obese mice, SC Q3d for 22 days; 10 nmol/kg (Semaglutide 30 nmol/kg)
Source text: To study the weight-lowering effect of the series of polypeptides of the present application in animal model of obesity, and to compare them with the marketed counterparts, Tirzepatide and Semaglutide. Mouse model of obesity was obtained by induction with high-fat diet following the reference literature (MOLECULAR METABOLISM, 18 (2018), P3-14). The specific experimental procedure was as follows: the experimental mice were fed with high-fat diet (Research Diet D12492) for 13 weeks. […] These findings indicated the successful establishment of animal models. The test animals were divided into groups. An appropriate amount of the test samples were added into 20 mM sodium citrate buffer following the experimental protocol, and the mixture was vortexed at room temperature to obtain clear solutions of varying concentrations. The obtained solutions were frozen for further use. During the experiment, animals in the model group and the dosing group were administered by means of subcutaneous injection on the outer thighs. The dosing regimen was once every 3 days […]), for a total period of 22 days. Details were as follows. [table] […] After completing the entire dosing test cycle, the test mice were weighed, and the results were shown below.

## CC[C@H](C)[C@H](NC(=O)[C@H](CC(C)C)NC(=O)[C@H](Cc1c[nH]c2ccccc12)NC(=O)[C@H](C)NC(=O)[C@@H](NC(=O)[C@H](Cc1ccccc1)NC(=O)[C@H](C)NC(=O)[C@@H]1CCCCNC(=O)CN(C(=O)COCCOCCNC(=O)COCCOCCNC(=O)CC[C@H](NC(=O)CCCCCCCCCCCCCCCCCCC(=O)O)C(=O)O)CC(=O)NCCCC[C@H](NC(=O)[C@H](CCCCN)NC(=O)[C@H](CC(=O)O)NC(=O)[C@H](CC(C)C)NC(=O)C(C)(C)NC(=O)[C@@H](NC(=O)[C@H](CO)NC(=O)[C@H](Cc2ccc(O)cc2)NC(=O)[C@H](CC(=O)O)NC(=O)[C@H](CO)NC(=O)[C@@H](NC(=O)[C@H](Cc2ccccc2)NC(=O)[C@@H](NC(=O)CNC(=O)[C@H](CCC(=O)O)NC(=O)C(C)(C)NC(=O)[C@@H](N)Cc2ccc(O)cc2)[C@@H](C)O)[C@@H](C)O)[C@@H](C)CC)C(=O)N[C@@H](C)C(=O)N[C@@H](CCC(N)=O)C(=O)N1)C(C)C)C(=O)N[C@@H](C)C(=O)NCC(=O)NCC(=O)N1CCC[C@H]1C(=O)N[C@@H](CO)C(=O)N[C@@H](CO)C(=O)NCC(=O)N[C@@H](C)C(=O)N1CCC[C@H]1C(=O)N1CCC[C@H]1C(=O)N1CCC[C@H]1C(=O)N[C@@H](CO)C(N)=O [WX-007]
GIPR
  EC50: 0.4 nM
GLP-1R
  EC50: 0.026 nM

## Tirzepatide
[1]; Day 0, 5 nmol/kg SC Qd
  Fasting blood glucose: 26.7 ± 1.4 mmol/L
[1]; Day 7, 5 nmol/kg SC Qd
  Fasting blood glucose: 11.6 ± 1.4 mmol/L
[1]; Day 14, 5 nmol/kg SC Qd
  Fasting blood glucose: 12.6 ± 1.6 mmol/L
  Change rate of glycosylated hemoglobin: −15.9 ± 5.4%
[1]; Day 21, 5 nmol/kg SC Qd
  Fasting blood glucose: 14.0 ± 1.4 mmol/L
  Change rate of glycosylated hemoglobin: −14.3 ± 4.9%
[1]; Day 29, 5 nmol/kg SC Qd
  Change rate of glycosylated hemoglobin: −10.2 ± 5.7%
Mouse model of obesity
  Weight change rate: −10.20%
